Measurements from patent US7037942B2, “Amide compounds for the potentiation of cholinergic activity” (Astellas Pharma Inc., priority 1999, dated 2006).

Tested on: penile erection
Test: Penile erection in rat
Type: in vivo
Conditions: male Fischer 344 rats, intraperitoneal, observed 60 minutes, mean number
Procedure: (This test was carried out according to a similar manner to that described in Jpn. J. Pharmacol., Vol. 64, 147–153 (1994))
Male Fischer 344 rats at the age of 8 weeks (n=7) were used. All rats were handled 3 minutes a day for three successive days before the tests. The rats were tested in groups of seven and various doses of the test compound were given in semi-randomized order. The test compounds were suspended in 0.5% methyl-cellulose immediately before use, and given intraperitoneally in a volume of 1 ml/kg just before the start of test. […] A mirror was situated behind each box […]. Data was expressed as a mean number.

Structure (SMILES)	Penile Erection (Number/hr) (dose 0.32 mg/kg)	Penile Erection (Number/hr) (dose 0.1 mg/kg)
O=C(Nc1ccc(F)cc1)N1CC=CCC1 [Example 2, 1-(4-fluorophenylcarbamoyl)-1,2,3,6-tetrahydropyridine]	0.57 Number/hr	–
O=C(NC1CCc2ccccc2C1)c1ccc(F)cc1 (stereo not shown) [Example 6, 2-(4-Fluorobenzoylamino)-1,2,3,4-tetrahydronaphthalene]	0.60 Number/hr	–
CC1=CCC(NC(=O)c2ccncc2)CC1 (stereo not shown) [Example 7, 1-(pyridin-4-ylcarbonylamino)-4-methylcyclohex-3-ene]	–	0.71 Number/hr
O=C(NC1CCc2ccccc2C1)c1ccncc1 (stereo not shown) [Example 8, 2-(Pyridin-4-ylcarbonylamino)-1,2,3,4-tetrahydro-naphthalene]	–	0.60 Number/hr
